Data on 6 compounds can be found in US20230002367A1, “BIFUNCTIONAL COMPOUNDS” (Hoffmann-La Roche Inc., priority 2019, published 2023).

Structures are written as SMILES. Read-outs that look alike come from different tables or passages of the source.

This assay deals with T1, SMARCA2 (Homo sapiens, UniProt P51531).
T1 construct: endogenous in cells
Kind of assay: SMARCA2 HiBiT degradation assay (cellular). Particulars: for DC50: read-out: HiBit A549 SMARCA2 IP. Type of assay: cell-based.

The mark [1] stands for this setting: A549, Emax = amount of residual protein remaining in the cell following compound treatment.
Setting [2] is: SMARCA2 HiBiT cells, luminescence readout, 11-point titration from 10 μM, 6 hours or 16 hours.

T1 sequence (P51531 whole entry): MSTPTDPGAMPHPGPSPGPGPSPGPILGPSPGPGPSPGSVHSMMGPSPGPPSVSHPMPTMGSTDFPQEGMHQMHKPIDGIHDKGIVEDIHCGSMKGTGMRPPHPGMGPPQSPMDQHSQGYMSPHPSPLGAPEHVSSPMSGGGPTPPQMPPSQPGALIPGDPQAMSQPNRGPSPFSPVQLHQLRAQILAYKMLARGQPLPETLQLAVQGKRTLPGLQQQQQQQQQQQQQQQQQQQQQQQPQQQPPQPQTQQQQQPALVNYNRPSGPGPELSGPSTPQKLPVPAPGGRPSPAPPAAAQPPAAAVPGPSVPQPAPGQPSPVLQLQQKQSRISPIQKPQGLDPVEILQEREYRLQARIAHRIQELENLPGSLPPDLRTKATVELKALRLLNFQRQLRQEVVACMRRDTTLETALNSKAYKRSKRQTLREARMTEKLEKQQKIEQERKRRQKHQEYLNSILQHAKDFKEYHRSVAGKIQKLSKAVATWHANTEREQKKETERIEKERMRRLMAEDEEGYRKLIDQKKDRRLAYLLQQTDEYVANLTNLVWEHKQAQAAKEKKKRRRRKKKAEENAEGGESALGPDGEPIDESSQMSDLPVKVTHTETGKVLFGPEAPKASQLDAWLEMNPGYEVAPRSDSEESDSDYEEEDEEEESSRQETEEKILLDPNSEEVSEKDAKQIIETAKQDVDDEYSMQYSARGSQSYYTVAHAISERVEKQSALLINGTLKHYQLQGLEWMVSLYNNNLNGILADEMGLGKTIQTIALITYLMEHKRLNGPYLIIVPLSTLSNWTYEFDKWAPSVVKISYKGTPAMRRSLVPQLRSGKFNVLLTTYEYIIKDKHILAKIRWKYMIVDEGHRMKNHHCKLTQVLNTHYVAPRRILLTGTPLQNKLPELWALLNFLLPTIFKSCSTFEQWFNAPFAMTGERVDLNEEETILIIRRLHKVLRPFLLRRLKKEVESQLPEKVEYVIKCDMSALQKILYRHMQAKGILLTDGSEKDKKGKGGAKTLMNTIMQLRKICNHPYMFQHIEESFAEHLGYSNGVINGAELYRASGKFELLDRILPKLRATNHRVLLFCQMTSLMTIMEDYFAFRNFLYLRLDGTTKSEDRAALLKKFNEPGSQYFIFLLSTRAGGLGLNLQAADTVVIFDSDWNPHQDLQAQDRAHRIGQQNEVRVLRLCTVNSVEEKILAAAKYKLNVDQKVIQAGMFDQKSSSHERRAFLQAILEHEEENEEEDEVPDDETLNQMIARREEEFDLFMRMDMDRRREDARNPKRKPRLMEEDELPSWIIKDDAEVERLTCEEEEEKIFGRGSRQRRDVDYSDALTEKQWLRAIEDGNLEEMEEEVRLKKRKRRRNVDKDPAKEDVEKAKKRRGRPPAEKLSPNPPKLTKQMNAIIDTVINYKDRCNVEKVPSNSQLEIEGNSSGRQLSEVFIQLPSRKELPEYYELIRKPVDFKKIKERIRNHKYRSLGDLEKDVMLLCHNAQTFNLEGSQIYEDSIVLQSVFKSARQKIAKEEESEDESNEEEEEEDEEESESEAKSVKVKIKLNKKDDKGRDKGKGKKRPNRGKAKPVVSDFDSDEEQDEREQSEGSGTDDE

Under setting [1], `Cc1ncsc1-c1ccc([C@H](C)NC(=O)[C@@H]2C[C@@H](O)CN2C(=O)[C@@H](NC(=O)CCCCCC(=O)N2CCN(C(=O)c3ccc(OC4CN(c5cc(-c6ccccc6O)nnc5N)C4)cc3)CC2)C(C)(C)C)cc1` [Example 103, (2S,4R)-1-[(2S)-2-[[7-[4-[4-[1-[3-amino-6-(2-hydroxyphenyl)pyridazin-4-yl]azetidin-3-yl]oxybenzoyl]piperazin-1-yl]-7-oxo-heptanoyl]amino]-3,3-dimethyl-butanoyl]-4-hydroxy-N-[(1S)-1-[4-(4-methylthiazol-5-yl)phenyl]ethyl]pyrrolidine-2-carboxamide] yielded a maximum response (Emax) of 60%. Also, the DC50 under setting [2] stood at 1890 nM.
`Cc1ncsc1-c1ccc([C@H](C)NC(=O)[C@@H]2C[C@@H](O)CN2C(=O)[C@@H](NC(=O)CCCCCCCCC(=O)N2CCN(C(=O)c3ccc(OC4CN(c5cc(-c6ccccc6O)nnc5N)C4)cc3)CC2)C(C)(C)C)cc1` [Example 104, (2S,4R)-1-[(2S)-2-[[10-[4-[4-[1-[3-amino-6-(2-hydroxyphenyl)pyridazin-4-yl]azetidin-3-yl]oxybenzoyl]piperazin-1-yl]-10-oxo-decanoyl]amino]-3,3-dimethyl-butanoyl]-4-hydroxy-N-[(1S)-1-[4-(4-methylthiazol-5-yl)phenyl]ethyl]pyrrolidine-2-carboxamide]: the Emax under setting [1] was found to be 54%. Also, the DC50 under setting [2] is 375 nM.
Under setting [1], `Cc1ncsc1-c1ccc([C@H](C)NC(=O)[C@@H]2C[C@@H](O)CN2C(=O)[C@@H](NC(=O)CCCCCC(=O)N2CCN(Cc3cccc(CCOc4cc(-c5ccccc5O)nnc4N)c3)CC2)C(C)(C)C)cc1` [Example 105, (2S,4R)-1-[(2S)-2-[[7-[4-[[3-[2-[3-amino-6-(2-hydroxyphenyl)pyridazin-4-yl]oxyethyl]phenyl]methyl]piperazin-1-yl]-7-oxo-heptanoyl]amino]-3,3-dimethyl-butanoyl]-4-hydroxy-N-[(1S)-1-[4-(4-methylthiazol-5-yl)phenyl]ethyl]pyrrolidine-2-carboxamide] gave an Emax of 40%. Moreover, the DC50 under setting [2] worked out at 923 nM.
In the same order, the values of `Cc1ncsc1-c1ccc([C@H](C)NC(=O)[C@@H]2C[C@@H](O)CN2C(=O)[C@@H](NC(=O)CCCCCCCCC(=O)N2CCN(Cc3cccc(CCOc4cc(-c5ccccc5O)nnc4N)c3)CC2)C(C)(C)C)cc1` [Example 106, (2S,4R)-1-[(2S)-2-[[10-[4-[[3-[2-[3-amino-6-(2-hydroxyphenyl)pyridazin-4-yl]oxyethyl]phenyl]methyl]piperazin-1-yl]-10-oxo-decanoyl]amino]-3,3-dimethyl-butanoyl]-4-hydroxy-N-[(1S)-1-[4-(4-methylthiazol-5-yl)phenyl]ethyl]pyrrolidine-2-carboxamide] are 39% and 346 nM.
For the setting “A549, different HIBIT SMARCA2 clone (footnote a), residual protein remaining”, `Cc1ncsc1-c1ccc(CNC(=O)[C@@H]2C[C@@H](O)CN2C(=O)[C@@H](NC(=O)CCCCCCCCC(=O)N2CCN(Cc3cccc(N4C5CCC4CN(c4cc(-c6cc(F)ccc6O)nnc4N)C5)c3)CC2)C(C)(C)C)cc1` [Example 107, (2S,4R)-1-[(2S)-2-[[10-[4-[[3-[3-[3-amino-6-(5-fluoro-2-hydroxy-phenyl)pyridazin-4-yl]-3,8-diazabicyclo[3.2.1]octan-8-yl]phenyl]methyl]piperazin-1-yl]-10-oxo-decanoyl]amino]-3,3-dimethyl-butanoyl]-4-hydroxy-N-[[4-(4-methylthiazol-5-yl)phenyl]methyl]pyrrolidine-2-carboxamide] displayed a maximal response (Emax) of 18%. The DC50 (different HIBIT SMARCA2 clone (footnote a)) stood at 82 nM.
As to `Cc1ncsc1-c1ccc(CNC(=O)[C@@H]2C[C@@H](O)CN2C(=O)[C@@H](NC(=O)CCCCCCCCCC(=O)N2CCN(CCOc3cccc(N4CC5CCC(C4)N5c4cc(-c5cc(F)ccc5O)nnc4N)c3)CC2)C(C)(C)C)cc1` [Example 110, (2S,4R)-1-[(2S)-2-[[11-[4-[2-[3-[8-[3-amino-6-(5-fluoro-2-hydroxy-phenyl)pyridazin-4-yl]-3,8-diazabicyclo[3.2.1]octan-3-yl]phenoxy]ethyl]piperazin-1-yl]-11-oxo-undecanoyl]amino]-3,3-dimethyl-butanoyl]-4-hydroxy-N-[[4-(4-methylthiazol-5-yl)phenyl]methyl]pyrrolidine-2-carboxamide], the Emax under setting [1] was determined as 76%. In addition, the DC50 under setting [2] was found to be 760 nM.
